The record followed here is ChEMBL document CHEMBL1148881 (Bioorg Med Chem Lett, 2007).

Assay [1] addresses T1, Peroxisome proliferator-activated receptor alpha (Homo sapiens, UniProt Q07869).
T1 sequence (Q07869 whole entry): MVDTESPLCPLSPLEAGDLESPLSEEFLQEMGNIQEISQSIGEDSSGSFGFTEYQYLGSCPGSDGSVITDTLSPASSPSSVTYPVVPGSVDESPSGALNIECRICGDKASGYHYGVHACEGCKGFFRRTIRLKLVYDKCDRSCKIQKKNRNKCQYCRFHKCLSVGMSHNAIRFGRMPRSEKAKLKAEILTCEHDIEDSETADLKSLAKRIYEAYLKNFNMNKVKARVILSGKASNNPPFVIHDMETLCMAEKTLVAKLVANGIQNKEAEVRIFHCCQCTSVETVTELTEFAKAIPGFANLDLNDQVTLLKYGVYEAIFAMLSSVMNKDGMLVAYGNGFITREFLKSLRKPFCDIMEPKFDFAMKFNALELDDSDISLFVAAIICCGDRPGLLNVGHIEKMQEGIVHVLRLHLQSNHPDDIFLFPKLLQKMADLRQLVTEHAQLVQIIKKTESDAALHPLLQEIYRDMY
Description: Displacement of [3H]2-(4-(2-(3-(2,4-difluorophenyl)-1-heptylureido)ethyl)phenoxy)-2-methylbutanoic acid from human PPARalpha after 30 mins by SPA assay

Assay [2] concerns the target T2, Peroxisome proliferator-activated receptor delta (Homo sapiens, UniProt Q03181).
T2 sequence (Q03181 whole entry): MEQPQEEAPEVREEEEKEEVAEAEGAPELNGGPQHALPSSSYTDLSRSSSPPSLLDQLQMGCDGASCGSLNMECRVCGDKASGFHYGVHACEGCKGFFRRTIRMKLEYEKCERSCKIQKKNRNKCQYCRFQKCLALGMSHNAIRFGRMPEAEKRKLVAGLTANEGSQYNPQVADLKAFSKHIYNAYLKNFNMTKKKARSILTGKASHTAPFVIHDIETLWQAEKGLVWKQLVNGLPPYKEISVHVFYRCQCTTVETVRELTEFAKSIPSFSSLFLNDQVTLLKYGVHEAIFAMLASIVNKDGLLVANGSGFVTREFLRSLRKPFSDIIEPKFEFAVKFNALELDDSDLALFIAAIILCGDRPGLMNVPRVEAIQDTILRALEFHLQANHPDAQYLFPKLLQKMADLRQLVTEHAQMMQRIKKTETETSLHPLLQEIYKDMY
Description: Displacement of [3H]2-(4-(3-(4-acetyl-3-hydroxy-2 propyl-phenoxy)propoxy)phenoxy)acetic acid from human PPARdelta after 30 mins by SPA assay

Assay [3] has as its target T2, Peroxisome proliferator-activated receptor delta. The assay is classed as functional, cell-based, HepG2.
Description: Agonist activity at human PPARdelta expressed in HepG2 cells after 16 hrs by luciferase reporter gene assay

Molecules are shown by their SMILES.

The term IC50 denotes the concentration needed to halve the response being measured. Lower therefore signals greater potency. Compound `O=C(O)COc1ccc(SCc2ccc(OCc3ccc(C(F)(F)F)cc3)cc2)c2c1CCCO2` returned an IC50 in assay [1] of 0.791 µM.
With `Cc1cc(SCc2ccc(OCc3ccc(C(F)(F)F)cc3)cc2)c2c(c1OCC(=O)O)CCC2`, the IC50 in assay [2] is 0.586 µM; in assay [1] it was 0.311 µM; in assay [3] it was over 10 µM.
`O=C(O)COc1ccc(SCc2ccc(OCc3ccc(C(F)(F)F)cc3)cc2)c2c1CCC2` returned an IC50 in assay [1] of 1.2 µM.
One may read the EC50 as the concentration giving half of the maximal effect. A low value points to an effect from little substance. With `O=C(O)COc1ccc(SCc2ccc(OCc3cc(Cl)ccc3Cl)cc2)c2c1CCC2`, the IC50 in assay [2] came out at 0.069 µM; in assay [1], 4.19 µM. Moreover, a half-maximal effect in assay [3] (EC50) was put at 0.585 µM.
Consider `O=C(O)COc1ccc(SCc2ccc(OCc3ccc(F)cc3)cc2)c2c1CCC2`, for which the IC50 in assay [2] is 0.191 µM; in assay [1] it was over 10 µM. The compound further had a concentration for a half-maximal effect (EC50) in assay [3] of 13.6 µM.
On the same counts, the results for `O=C(O)COc1ccc(SCc2cc(F)ccc2OCc2ccc(C(F)(F)F)cc2)c2c1CCC2` are 0.0017 µM, over 10 µM and 0.07 µM.
On the same counts, the results for `O=C(O)COc1ccc(SCc2ccc(OCc3ccc(OC(F)(F)F)cc3)cc2)c2c1CCC2` are 0.076 µM, 0.672 µM and 0.53 µM.
`COc1cc(OCC(=O)O)c(C)cc1SCc1ccc(OCc2ccc(C(F)(F)F)cc2)cc1`: it took 0.0047 µM to reach half-maximal inhibition in assay [1] (IC50).
For the compound `Cc1cc(SCc2ccc(OCc3ccc(C(F)(F)F)cc3)cc2)ccc1OCC(=O)O`, the IC50 in assay [2] was 0.019 µM; in assay [1] it was 0.578 µM. This compound showed a half-maximal effective concentration (EC50) in assay [3] of 0.252 µM.
For the compound `O=C(O)COc1ccc(SCc2ccc(OCc3ccc(Cl)cc3)cc2)c2c1CCC2`, the IC50 in assay [2] turned out to be 0.089 µM; in assay [1], 3.91 µM. A half-maximal response in assay [3] (EC50) required 0.933 µM.
On to `COc1ccc(COc2ccc(CSc3ccc(OCC(=O)O)c4c3CCC4)cc2)cc1`, for which the IC50 in assay [2] stood at 0.12 µM; in assay [1], 4.95 µM. Besides, the EC50 in assay [3] came out at 1.97 µM.
On the same counts, the results for `O=C(O)COc1ccc(SCc2ccc(OCc3ccccc3)cc2)c2c1CCC2` are 0.125 µM, over 10 µM and 2.21 µM.
Turning to `O=C(O)COc1ccc(SCc2ccccc2OCc2ccc(C(F)(F)F)cc2)c2c1CCC2`, the figures for the IC50 in assay [2] and in assay [1] were 0.0104 µM and over 10 µM, respectively. The same compound displayed a 50% effective concentration (EC50) in assay [3] of 0.23 µM.
Consider `O=C(O)COc1ccc(SCc2ccc(F)cc2OCc2ccc(C(F)(F)F)cc2)c2c1CCC2`, for which the results for the IC50 in assay [2] and in assay [1] were 0.062 µM and 3.11 µM, respectively.
`O=C(O)COc1ccc(SCc2c(F)cccc2OCc2ccc(C(F)(F)F)cc2)c2c1CCC2`: the IC50 in assay [2] is 0.286 µM; in assay [1], over 10 µM. A half-maximal effect in assay [3] (EC50) was put at 2.61 µM.
For the compound `Cc1cc(SCc2ccc(OCc3ccc(C(F)(F)F)cc3)cc2)c(Cl)cc1OCC(=O)O`, the IC50 in assay [2] is 0.02 µM; in assay [1], 0.128 µM. Also, the EC50 in assay [3] turned out to be 0.374 µM.
Take `Cc1cc(SCc2ccc(OCc3ccc(C(F)(F)F)cc3)cc2)c2c(c1OCC(=O)O)CCCO2`: the 50% inhibitory concentration (IC50) was 0.313 µM in assay [2], 0.428 µM in assay [1] and over 10 µM in assay [3].
For the compound `CC(C)(C)c1ccc(COc2ccc(CSc3ccc(OCC(=O)O)c4c3CCC4)cc2)cc1`, the half-maximal inhibitory concentration (IC50) in assay [2] is 0.148 µM; in assay [1] it was 1.54 µM. For the same compound, in assay [3], a half-maximal effect (EC50) was put at 0.267 µM.
For `O=C(O)COc1ccc(SCc2ccc(OCc3ccc(F)cc3C(F)(F)F)cc2)c2c1CCC2`, the half-maximal inhibitory concentration (IC50) in assay [2] stood at 0.356 µM; in assay [1], 3.48 µM. The EC50 in assay [3] came out at 1.72 µM.
With `O=C(O)COc1ccc(SCc2cccc(F)c2OCc2ccc(C(F)(F)F)cc2)c2c1CCC2`, the 50% inhibitory concentration (IC50) is 0.111 µM in assay [2] and 3.67 µM in assay [1].
